Laboratory results reported in patent publication US9296720B2, “Carboxamide-substituted heteroaryl-pyrazoles and the use thereof” (AiCuris GmbH & Co. KG, priority 2011, dated 2016).
Where two headings read alike, the source gives them in different places.

Legend:
Type in all cases: cell-based
HIV-1NL4-3 Wild Type = test: Luminescence reduction assay, MT4 cells infected with HIV-1NL4-3 luciferase reporter virus, wild type; settings: 2% FCS
Description: (§1) For this assay, HIV-1NL4-3 reporter viruses are used, which carry the luciferase164 gene (lu164) instead of the nef gene. The viruses are generated by transfection of 293T cells with the corresponding proviral pNL4-3 plasmid (Lipofectamine Reagent, Invitrogen, Karlsruhe, Germany). Starting from the proviral plasmid-DNA, viruses with defined resistance mutations in the reverse transcriptase gene are produced with the “QuikChange II XL Site-Directed Mutagenesis Kit” (Stratagene, Cedar Creek, Tex., USA). Among other things, the following mutations are generated: A98G, A98G-K103N-V108I, A98S, F227C, F227L, G190A, G190S, K101E, K101Q-K103N, K103N, K103N-F227L, K103N-G190A, K103N-G190S, K103N-M230L, K103N-N348I, K103N-P225H, K103N-V108I, K103N-V108I-P225H, K103N-V179F-Y181C, K103N-Y181C, K103N-Y181C-G190A, L100I, L100I-K103N, L100I-K103N-V179I-Y181C, L100I-K103N-Y181C, L234I, N348I, P225H, P236L, V106A, V106A-E138K, V106A-F227C, V106A-F227L, V106I, V106I-Y188L, V106M, V108I, V179F-Y181C, V179I, V179I-Y181C, Y181C, Y181C-G190A, Y181C-M230L, Y181I, Y188L. MT4 cells infected with these reporter viruses (NIH AIDS Research and Reference Reagent Program) secrete luciferase into the medium, which makes possible the luminometric quantification of the virus replication.
(§2) For the batch of a 96-well MTP, 3 million MT4 cells are pelletized, suspended in 1 ml of RPMI 1640 medium without phenol red (Invitrogen, Karlsruhe, Germany)/10% FCS/2 mmol of L-glutamine/1% Pen/Strep (Invitrogen, Karlsruhe, Germany), and incubated together with a suitable amount of the corresponding HIV-1NL4-3 reporter virus for 2 hours at 37° C. (pellet infection). Non-adsorbed viruses are then washed out with PBS, the infected cells are pelletized again, and suspended in 8 ml of RPM 11640 medium without phenol red/2% or 10% FCS/2 mmol of L-glutamine/1% Pen/Strep. Therefrom, 80 μl per well is pipetted into a white 96-well MTP in 20 μl of test substance in a suitable dilution. In order to avoid boundary effects, the edge wells of the MTP are not used for substance dilutions. The second vertical row of the MTP contains only infected cells (virus control), and the eleventh vertical row contains only non-infected cells (cell control) in each case in RPMI 1640 medium without phenol red/2% or 10% FCS/2 mmol of L-glutamine/1% Pen/Strep. The other wells of the MTP contain the compounds according to the invention in different concentrations starting from the third vertical row, from which dilution of the test substances is carried out 3^7 times in three steps up to the tenth vertical row. The test substances are dissolved in DMSO, whereby the DMSO final concentration in the test batch is ultimately 1%. The test batches are incubated for 5 days at 37° C./5% CO2, and are luminometrically evaluated after the addition of 15 μl of Lu164-buffer (65 mmol of NaCl, 300 mmol of MES, pH 5.8, 5 mmol of glutathione and 1:200 coelenterazine (5 mg/ml in 30 μM of glutathione/DMSO) (P.J.K. GmbH, Kleinblittersdorf, Germany)). In the virus control, the resulting values are in the range of 1 million RLUs (relative light units), and in the cell control, the resulting values are 300 to 400 RLUs. The EC50 values of the test substances are determined as the concentration of the treated infected cells, in which the virus replication measured in RLUs is 50% of the untreated infected cells.

HIV-1NL4-3 K103N-Y181C = test: Luminescence reduction assay, MT4 cells infected with HIV-1NL4-3 luciferase reporter virus, RT mutant K103N-Y181C
Description: as §1, §2

HIV-1LAI Wild Type = test: AlamarBlue viability assay, HIV-1LAI-infected MT4 cells; settings: 10% FCS
Description: For the batch of a 96-well MTP, 3 million PBLs are pelletized, suspended in 1 ml of RPMI 1640 medium/10% FCS/2 mmol of L-glutamine/1% Pen/Strep, and incubated together with a suitable amount of HIV-1LA1 (NIH AIDS Research & Reference Reagent Program, Germantown, USA) for 2 hours at 37° C. (pellet infection). Non-adsorbed viruses are then washed out with PBS, the infected cells are pelletized again, and suspended in 18 ml of RPMI 1640 medium/10% FCS/2 mmol of L-glutamine/1% Pen/Strep/interleukin-2 (40 U/ml). Therefrom, 180 μl per well is pipetted into a white 96-well MTP in 20 μl of test substance in a suitable dilution. As an alternative, after preparation of the substance dilutions, the HIV is added by pipetting in the MTP together with the cells and is no longer washed out (supernatant infection). In order to avoid boundary effects, the edge wells of the MTP are not used for substance dilutions. The second vertical row of the MTP contains only infected cells (virus control), and the eleventh vertical row contains only non-infected cells (cell control) in each case in RPMI 1640 medium/10% FCS/2 mmol of L-glutamine/1% Pen/Strep/interleukin-2 (40 U/ml). The other wells of the MTP contain the compounds according to the invention in different concentrations starting from the third vertical row, from which dilution of the test substances is carried out 3^7 times in three steps up to the tenth vertical row. The test substances are dissolved in DMSO, whereby the DMSO final concentration in the test batch is ultimately 1%. The test batches are incubated at 37° C./5% CO2. After 5 and 7 days, in each case 50 μl of cell-free supernatant is drawn off from each well in order to determine the amount of p24 contained by means of p24 ELISA (HIV-1 p24^CA Antigen Capture Assay Kit, NCI-Frederick Cancer Research and Development Center, Frederick, USA). From the resulting values of the photometric analysis (450/620 nm), the EC50 values of the test substances are determined as the concentration of the treated infected cells, in which the amount of p24 is 50% of the untreated infected cells.
As an alternative, MT4 cells are used for testing test substances instead of PBLs. HIV-1LA1-infected MT4 cells (MOI 0.01, supernatant infection) are incubated according to the above-described pattern in RPMI 1640 medium with 2% or 10% FCS/2 mmol of L-glutamine/1% Pen/Strep in the presence of test substances for 5 days at 37° C./5% CO2 (20 μl of substance dilution and 80 μl of cells/virus per well). Then, 10 μl of AlamarBlue (Invitrogen, Karlsruhe, Germany) is added to each well, and MTPs are incubated for 3 hours at 37° C., before the fluorimetric analysis is done (544/590 nm). The resulting values are approximately 30,000 in the case of untreated, non-infected cells, and approximately 6,000 in the case of untreated infected cells. In the low concentration range, the EC50 values of the test substances are determined as the concentration of the treated infected cells, in which the fluorescence is 50% of the untreated non-infected cells (in each case relative to the values of the untreated infected cells). In addition, in the high concentration range, the CC50 values of the test substances are determined as the concentration of the treated infected cells, in which the fluorescence is 50% of the untreated, non-infected cells (in each case relative to the values of the untreated infected cells).

[1] = Human immunodeficiency virus 1, MT4, MT4 cells
[2] = Human immunodeficiency virus 1, MT4, read-out: EC50 (μM) MT4 Cells HIV-1NL4-3 K103N-Y181C 2% FCS, MT4 cells, HIV-1NL4-3 K103N-Y181C, 2% FCS
[3] = read-out: EC50 (μM) MT4 Cells HIV-1NL4-3 K103N-Y181C 2% FCS, MT4 cells, HIV-1NL4-3 K103N-Y181C, 2% FCS

COc1cc(OC(F)(F)F)cc(-c2cc(C(=O)N3CNC(=O)C3)nn2-c2cccnc2)c1 [Example 84, 1-({5-[3-Methoxy-5-(trifluoromethoxy)phenyl]-1-(pyridin-3-yl)-1H-pyrazol-3-yl}carbonyl)imidazolidin-4-one]
EC50 (HIV-1NL4-3 Wild Type; [1]): 0.01 µM | EC50 (HIV-1NL4-3 K103N-Y181C; [2]): 0.008 µM | EC50 (HIV-1LAI Wild Type; [1]): 0.048 µM

Cc1cc(-n2nc(C(=O)N3CCSC3)cc2-c2cc(F)cc(Cl)c2)ccn1 [Example 23, [5-(3-Chloro-5-fluorophenyl)-1-(2-methylpyridin-4-yl)-1H-pyrazol-3-yl](1,3-thiazolidin-3-yl)methanone]
EC50 (HIV-1NL4-3 Wild Type; [1]): 0.439 µM | EC50 (HIV-1NL4-3 K103N-Y181C; [2]): > 3.3 µM | EC50 (HIV-1LAI Wild Type; [1]): > 3.3 µM

O=C(c1cc(-c2cc(F)cc(OC(F)(F)F)c2)n(-c2cccnc2)n1)N1CCOCC1 [Example 61, {5-[3-Fluoro-5-(trifluoromethoxy)phenyl]-1-(pyridin-3-yl)-1H-pyrazol-3-yl}(morpholin-4-yl)methanone]
EC50 (HIV-1NL4-3 Wild Type; [1]): 0.092 µM | EC50 (HIV-1NL4-3 K103N-Y181C; [2]): 0.767 µM | EC50 (HIV-1LAI Wild Type; [1]): 0.6 µM

O=C(c1cc(-c2cc(Br)cc(OC(F)(F)F)c2)n(-c2cccnc2)n1)N1CC[S+]([O-])C1 (racemic) [Example 31-1, {5-[3-Bromo-5-(trifluoromethoxy)phenyl]-1-(pyridin-3-yl)-1H-pyrazol-3-yl}(1-oxido-1,3-thiazolidin-3-yl)methanone]
EC50 (HIV-1NL4-3 Wild Type; MT4 cells): 0.084 µM | EC50 (HIV-1NL4-3 K103N-Y181C; [3]): 0.981 µM | EC50 (HIV-1LAI Wild Type; MT4 cells): 0.82 µM

O=C1CN(C(=O)c2cc(-c3cncc(F)c3)n(-c3ccc(F)c(Cl)c3)n2)CN1 [Example 98, 1-{[1-(3-Chloro-4-fluorophenyl)-5-(5-fluoropyridin-3-yl)-1H-pyrazol-3-yl]carbonyl}imidazolidin-4-one]
EC50 (HIV-1NL4-3 Wild Type; [1]): 0.018 µM | EC50 (HIV-1NL4-3 K103N-Y181C; [2]): 0.032 µM | EC50 (HIV-1LAI Wild Type; [1]): 0.056 µM

O=C(c1cc(-c2cc(F)cc(OC(F)(F)F)c2)n(-c2cccnc2)n1)N1CC[S+]([O-])C1 (racemic) [Example 60-1, {5-[3-Fluoro-5-(trifluoromethoxy)phenyl]-1-(pyridin-3-yl)-1H-pyrazol-3-yl}(1-oxido-1,3-thiazolidin-3-yl)methanone]
EC50 (HIV-1NL4-3 Wild Type; MT4 cells): 0.431 µM | EC50 (HIV-1NL4-3 K103N-Y181C; [3]): > 3.3 µM | EC50 (HIV-1LAI Wild Type; MT4 cells): > 3.3 µM

O=C1CN(C(=O)c2cc(-c3cc(Br)cc(OC(F)(F)F)c3)n(-c3cncc(Cl)c3)n2)CN1 [Example 42, 1-({5-[3-Bromo-5-(trifluoromethoxy)phenyl]-1-(5-chloropyridin-3-yl)-1H-pyrazol-3-yl}carbonyl)imidazolidin-4-one]
EC50 (HIV-1NL4-3 Wild Type; [1]): 0.018 µM | EC50 (HIV-1NL4-3 K103N-Y181C; [2]): 0.028 µM | EC50 (HIV-1LAI Wild Type; [1]): 0.247 µM

O=C1CN(C(=O)c2cc(-c3cc(F)cc(Cl)c3)n(-c3ccc(Cl)nc3)n2)CCN1 [Example 8, 4-{[5-(3-Chloro-5-fluorophenyl)-1-(6-chloropyridin-3-yl)-1H-pyrazol-3-yl]carbonyl}piperazin-2-one]
EC50 (HIV-1NL4-3 Wild Type; [1]): 0.06 µM | EC50 (HIV-1NL4-3 K103N-Y181C; [2]): 0.29 µM | EC50 (HIV-1LAI Wild Type; [1]): 0.205 µM

O=C(c1cc(-c2cc(F)cc(Cl)c2)n(-c2cccnc2)n1)N1CC[S+]([O-])C1 (racemic) [Example 6-1, [5-(3-Chloro-5-fluorophenyl)-1-(pyridin-3-yl)-1H-pyrazol-3-yl](1-oxido-1,3-thiazolidin-3-yl)methanone]
EC50 (HIV-1NL4-3 Wild Type; MT4 cells): 0.255 µM | EC50 (HIV-1NL4-3 K103N-Y181C; [3]): > 3.3 µM | EC50 (HIV-1LAI Wild Type; MT4 cells): 1.49 µM

O=C1CN(C(=O)c2cc(-c3ccnc(Cl)c3)n(-c3ccc(F)c(Cl)c3)n2)CN1 [Example 112, 1-{[1-(3-Chloro-4-fluorophenyl)-5-(2-chloropyridin-4-yl)-1H-pyrazol-3-yl]carbonyl}imidazolidin-4-one]
EC50 (HIV-1NL4-3 Wild Type; [1]): 0.016 µM | EC50 (HIV-1NL4-3 K103N-Y181C; [2]): 0.03 µM | EC50 (HIV-1LAI Wild Type; [1]): 0.079 µM

O=C1CN(C(=O)c2cc(-c3cncc(Cl)c3)n(-c3ccc(F)c(Cl)c3)n2)CN1 [Example 100, 1-{[1-(3-Chloro-4-fluorophenyl)-5-(5-chloropyridin-3-yl)-1H-pyrazol-3-yl]carbonyl}imidazolidin-4-one]
EC50 (HIV-1NL4-3 Wild Type; [1]): 0.005 µM | EC50 (HIV-1NL4-3 K103N-Y181C; [2]): 0.009 µM | EC50 (HIV-1LAI Wild Type; [1]): 0.01 µM

COc1cc(Br)cc(-c2cc(C(=O)N3CNC(=O)C3)nn2-c2cccnc2)c1 [Example 94, 1-{[5-(3-Bromo-5-methoxyphenyl)-1-(pyridin-3-yl)-1H-pyrazol-3-yl]carbonyl}imidazolidin-4-one]
EC50 (HIV-1NL4-3 Wild Type; [1]): < 0.002 µM | EC50 (HIV-1NL4-3 K103N-Y181C; [2]): 0.012 µM | EC50 (HIV-1LAI Wild Type; [1]): 0.006 µM

O=C(c1cc(-c2cc(Br)cc(OC(F)(F)F)c2)n(-c2cccnc2)n1)N1CC[S+]([O-])C1 (racemic) [Example 31, {5-[3-Bromo-5-(trifluoromethoxy)phenyl]-1-(pyridin-3-yl)-1H-pyrazol-3-yl}(1-oxido-1,3-thiazolidin-3-yl)methanone]
EC50 (HIV-1NL4-3 Wild Type; MT4 cells): 0.017 µM | EC50 (HIV-1NL4-3 K103N-Y181C; [3]): 0.045 µM | EC50 (HIV-1LAI Wild Type; MT4 cells): 0.18 µM
